We go through 46 compounds from patent US7179825B2, “Retinoic acid mimetic anilides” (Janssen Pharmaceutica N.V., priority 1997, dated 2007).

The test system of assay [1] is metabolism of retinoic acid in human breast cancer cells. The experiment in a line: Inhibition of retinoic acid (RA) metabolism (Example C.1). The assay is classed as cell-based. To be noted: MCF-7 human breast cancer cells, 3H-RA as substrate, concentration needed to reduce the amount of metabolites to 50% of the control. In outline: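 Test compound (in 1% DMSO) added at several concentrations to MCF-7 cell suspensions fed ³H-RA, after RA induction of metabolism one day earlier. Scintillation counting of the separated polar metabolite fraction; IC50 = concentration giving 50% of control metabolite level.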

The test system of assay [2] is Ovariectomized rats. The experiment in a line: Vaginal keratinization test on ovariectomized rats (Example C.2). The assay is classed as in vivo. To be noted: estradiol undecylate induced keratinization, per os once daily on days 1-3, active dose = 50% of rats show complete suppression. The method in brief:
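Value is the lowest oral dose (mg/kg) at which half of tested rats show complete suppression of estradiol undecylate-induced vaginal keratinization by histology. Ovariectomized rats received 100 μg/100 g estradiol undecylate s.c., then compound or PEG 200 vehicle p.o. daily for three days; sacrifice one day later.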

In the case of `CCOc1ccc(NC(=O)Nc2ccc(C(C(C)C)n3ccnc3)cc2)cc1` (racemic) [Compound 707], in assay [1], the IC50 (usually the concentration needed to halve the response being measured) came out at 13 nM. For the same compound, the “LAD (lowest active dose)” value in assay [2] turned out to be 5.00 mg/kg.
Taken in the same sequence, the figures for `CC(C)C(c1ccc(NC(=O)Nc2cccc(Cl)c2)cc1)n1ccnc1` (racemic) [Compound 738] were 2.03 nM and 10.00 mg/kg.
In the case of `CCC(CC)C(c1ccc(NC(=O)c2cnccn2)cc1)n1ccnc1` (racemic) [Compound 27], in assay [1], the half-inhibitory concentration (IC50) was found to be 0.232 nM. Further, the “LAD (lowest active dose)” value in assay [2] is 5.00 mg/kg.
For `CC(C)C(c1ccc(NC(=O)Cc2ccc(F)cc2)cc1)n1cncn1` (centres unmarked) [Compound 132], in that order: 4.49 nM and 5.00 mg/kg.
Take `COc1ccc(CC(=O)Nc2ccc(C(C(C)CN3CCCCC3)n3ccnc3)cc2)cc1OC` (single isomer, unassigned) [Compound 389]: the IC50 in assay [1] stood at 0.0567 nM. Also, in assay [2], the “LAD (lowest active dose)” value was above 2.50 mg/kg.
Taken in the same sequence, the figures for `CC(=Cc1cccn1C)C(=O)Nc1ccc(C(C(C)C)n2ccnc2)cc1` (racemic) [Compound 605] were 14 nM and above 10.00 mg/kg.
Taken in the same sequence, the figures for `CC(C)/C(=C\c1ccccc1)C(=O)Nc1ccc(C(C(C)C)n2ccnc2)cc1` (centres unmarked) [Compound 471] were above 100 nM and above 10.00 mg/kg.
For `CC(C)C(c1ccc(NC(=O)c2nccc3ccccc23)cc1)n1ccnc1` (centres unmarked) [Compound 229], in that order: 1.64 nM and above 10.00 mg/kg.
As for `CC(C)C(c1ccc(NC(=O)c2ccc3nnn(C)c3c2)cc1)n1ccnc1` (racemic) [Compound 184], the half-inhibitory concentration (IC50) in assay [1] amounted to 5.15 nM. Moreover, in assay [2], the “LAD (lowest active dose)” value is above 10.00 mg/kg.
Taken in the same sequence, the figures for `COc1ccc(CC(=O)Nc2ccc(C(C(C)N3CCN(C)CC3)n3ccnc3)cc2)cc1OC.O` (single isomer, unassigned) [Compound 412] were 3.99 nM and above 2.50 mg/kg.
In the case of `C/C(=C\c1ccc(F)cc1)C(=O)Nc1ccc(C(C(C)C)n2ccnc2)cc1` (racemic) [Compound 583], the half-maximal inhibitory concentration (IC50) in assay [1] was 2.78 nM. For the same compound, the “LAD (lowest active dose)” value in assay [2] is 10.00 mg/kg.
In the case of `CCC(CC)C(c1ccc(NC(=O)Cc2ccccc2C)cc1)n1ccnc1` (racemic) [Compound 104], the 50% inhibitory concentration (IC50) in assay [1] stood at 0.0407 nM. The “LAD (lowest active dose)” value in assay [2] is on record as 2.50 mg/kg.
Taken in the same sequence, the figures for `CC(C)C(c1ccc(NC(=O)Nc2cccc(F)c2)cc1)n1ccnc1` (racemic) [Compound 741] were 1.44 nM and 10.00 mg/kg.
For `CC(C)C(c1ccc(NC(=O)C2(C)CCCCC2)cc1)n1ccnc1` (racemic) [Compound 201], in that order: 3.58 nM and above 10.00 mg/kg.
For `O=C(Nc1ccc(C(c2ccccc2)n2ccnc2)cc1)C1COc2ccccc2O1` (centres unmarked) [Compound 425], in that order: 38.1 nM and above 10.00 mg/kg.
Regarding `CC(C(c1ccc(NC(=O)Cc2ccc(Cl)cc2)cc1)n1ccnc1)N(C)C` (single isomer, unassigned) [Compound 368], in assay [1], the 50% inhibitory concentration (IC50) worked out at 0.583 nM. Moreover, the “LAD (lowest active dose)” value in assay [2] was determined as 2.50 mg/kg.
Taken in the same sequence, the figures for `CCC(CC)C(c1ccc(NC(=O)Nc2cc(F)ccc2F)cc1)n1cncn1` (racemic) [Compound 712] were 0.0043 nM and 5.00 mg/kg.
`C/C(=C\c1ccc(C(F)(F)F)cc1)C(=O)Nc1ccc(C(C(C)C)n2cncn2)cc1` (centres unmarked) [Compound 159]: the IC50 in assay [1] was above 100 nM. Besides, the “LAD (lowest active dose)” value in assay [2] was above 10.00 mg/kg.
Regarding `CCC(CC)C(c1ccc(NC(=O)CCCc2ccc(OC)c(OC)c2)cc1)n1ccnc1` (racemic) [Compound 52], the half-inhibitory concentration (IC50) in assay [1] turned out to be 0.907 nM. Moreover, the “LAD (lowest active dose)” value in assay [2] is 2.50 mg/kg.
In the case of `CC(Cc1ccccc1)C(=O)Nc1ccc(C(C(C)C)n2ccnc2)cc1` (racemic) [Compound 164, (±)-N-[4-[1-(1H-imidazol-1-yl)-2-methylpropyl]phenyl]-α-methylbenzenepropanamide], the concentration for half-maximal inhibition (IC50) in assay [1] (MCF7) was found to be 8.15 nM. For the same compound, the minimal effective dose in assay [2] (Rattus norvegicus, po, read-out: LAD (lowest active dose)) came to 20 mg/kg.
On to `CC(C)C(c1ccc(NC(=O)c2cc3ccccc3o2)cc1)n1ccnc1` (racemic) [Compound 167], for which, in assay [1], the half-maximal inhibitory concentration (IC50) turned out to be 4.16 nM. Moreover, the “LAD (lowest active dose)” value in assay [2] is recorded as 10.00 mg/kg.
For `CN(C)CC(c1ccc(NC(=O)Oc2ccccc2)cc1)n1ccnc1` (racemic) [Compound 435], in that order: 2.8 nM and above 2.50 mg/kg.
Taken in the same sequence, the figures for `CCOc1ccc(CCCC(=O)Nc2ccc(C(C(CC)CC)n3ccnc3)cc2)cc1` (racemic) [Compound 48] were 0.569 nM and 2.50 mg/kg.
For `CCC(CC)C(c1ccc(NC(=O)C2COc3ccccc3O2)cc1)n1ccnc1` (mixture of isomers) [Compound 23], in that order: 0.503 nM and 2.50 mg/kg.
`CC(C)C(c1ccc(NC(=O)/C(=C/c2ccccc2)C2CCCCC2)cc1)n1ccnc1` (racemic) [Compound 473]: in assay [1], the IC50 is above 100 nM. Also, the “LAD (lowest active dose)” value in assay [2] is given as above 10.00 mg/kg.
Taken in the same sequence, the figures for `CNC(=S)Nc1ccc(C(C(C)C)n2ccnc2)cc1` (racemic) [Compound 696] were 8.07 nM and above 10.00 mg/kg.
For `CCCC/C(=C\c1ccccc1)C(=O)Nc1ccc(C(C(C)C)n2ccnc2)cc1` (racemic) [Compound 465], in that order: 50.4 nM and above 20.00 mg/kg.
Taken in the same sequence, the figures for `CCC(C(c1ccc(NC(C)=O)cc1)n1cncn1)N(C)C` (single isomer, unassigned) [Compound 645] were 8.02 nM and above 5.00 mg/kg.
Consider `CCN(CC)C(C)C(c1ccc(NC(=O)Cc2ccc(OC)c(OC)c2)cc1)n1cncn1` (single isomer, unassigned) [Compound 649], for which, in assay [1], the IC50 turned out to be 7.32 nM. Also, in assay [2], the “LAD (lowest active dose)” value was 5.00 mg/kg.
Taken in the same sequence, the figures for `C/C(=C\c1ccccc1)C(=O)Nc1ccc(C(c2cccnc2)C(C)C)cc1` (racemic) [Compound 679] were above 1000 nM and above 20.00 mg/kg.
Taken in the same sequence, the figures for `CCC(CC)C(c1ccc(NC(=O)Cc2ccc3c(c2)OCO3)cc1)n1cncn1` (racemic) [Compound 5] were 0.27 nM and above 2.50 mg/kg.
For `CCC(CC)C(c1ccc(NC(=O)Cc2ccc(N(C)C)cc2)cc1)n1ccnc1` (racemic) [Compound 99], in that order: 5.77 nM and 2.50 mg/kg.
For the compound `CCOC(=O)Nc1ccc(C(C(C)C)n2ccnc2)cc1` (centres unmarked) [Compound 183], the 50% inhibitory concentration (IC50) in assay [1] was determined as 7.4 nM. For the same compound, the “LAD (lowest active dose)” value in assay [2] was above 10.00 mg/kg.
For `CCC(CC)C(c1ccc(N(C)C(=O)Cc2ccc(OC)c(OC)c2)cc1)n1ccnc1` (racemic) [Compound 427], the IC50 in assay [1] was 8.34 nM. Moreover, the “LAD (lowest active dose)” value in assay [2] came out at 2.50 mg/kg.
Taken in the same sequence, the figures for `C/C(=C\c1cccnc1)C(=O)Nc1ccc(C(C(C)C)n2ccnc2)cc1` (racemic) [Compound 575] were 25.7 nM and 20.00 mg/kg.
Taken in the same sequence, the figures for `CC(C(c1ccc(NC(=O)Cc2ccc(Cl)cc2)cc1)n1ccnc1)N(C)C` (single isomer, unassigned) [Compound 367] were 1.25 nM and 2.50 mg/kg.
Consider `O=C(CC1COc2ccccc2O1)Nc1ccc(C(c2ccccc2)n2ccnc2)cc1` (centres unmarked) [Compound 426], for which the half-maximal inhibitory concentration (IC50) in assay [1] is above 100 nM. The “LAD (lowest active dose)” value in assay [2] is above 10.00 mg/kg.
For `CC(C)C(c1ccc(NC(=O)Cc2cccs2)cc1)n1ccnc1` (racemic) [Compound 244], in that order: 2.3 nM and 10.00 mg/kg.
For `CCC(=O)Nc1ccc(C(C(C)C)n2ccnc2)cc1` (racemic) [Compound 163], in that order: 2.36 nM and 20.00 mg/kg.
Taken in the same sequence, the figures for `O=C(Cc1ccccc1)Nc1ccc(C(c2cccc(F)c2)n2cncn2)cc1` (racemic) [Compound 619] were 35.7 nM and above 20.00 mg/kg.
In the case of `Cc1cc(CC(=O)Nc2ccc(C(C(C)N(C)C)n3cncn3)cc2)cc(C)c1C` (single isomer, unassigned) [Compound 291], in assay [1], the IC50 was determined as 4.23 nM. Moreover, the “LAD (lowest active dose)” value in assay [2] is reported as above 2.50 mg/kg.
Taken in the same sequence, the figures for `CC(C(c1ccc(NC(=O)Cc2ccc(O)c(Cl)c2)cc1)n1cncn1)N(C)C` (single isomer, unassigned) [Compound 289] were 0.507 nM and above 2.50 mg/kg.
Regarding `CC(C)C(c1ccc(NC(=O)C=C(c2ccccc2)c2ccccc2)cc1)n1ccnc1` (racemic) [Compound 511], the IC50 in assay [1] was found to be 10.5 nM. The “LAD (lowest active dose)” value in assay [2] is above 20.00 mg/kg.
For `CCC(CC)C(c1ccc(NC(=O)Cc2ccc(Cl)c(OC)c2)cc1)n1cncn1` (racemic) [Compound 83], in that order: 0.162 nM and above 2.50 mg/kg.
For `CC(C(=O)Nc1ccc(C(C(C)C)n2ccnc2)cc1)=C(c1ccccc1)c1cccnc1` (mixture of isomers) [Compound 171], in that order: 85.8 nM and above 10.00 mg/kg.
For `CC(C)C(c1ccc(NC(=O)C2COc3ccccc3C2)cc1)n1ccnc1` (mixture of isomers) [Compound 253], in that order: 5.55 nM and above 5.00 mg/kg.
